Laboratory results: patent US6620424B1, “Process for producing glycolytic metabolism regulators” (Suntory Limited, priority 1998, dated 2003)

Experiments:
[1] = animal studies and clinical trials; cited from earlier work
Male SD rats [2] = assay: Evaluation of the suppressive effect on blood glucose elevation in rats (glucose challenge); format: in vivo, rat
Method: Male SD rats (weighing 300 to 400 g), operated on for blood sampling cannulation into the femoral artery, were used. After an overnight fast, itaconic acid (500 mg/kg) was orally administered. Thirty minutes later, glucose (4 g/kg) was ingested, and changes in blood glucose were observed. In the control group, purified water, free of itaconic acid, was orally administered in the same volume. Experiments were conducted in groups of 4 rats each, and the results were indicated as mean values±standard deviations. The test for a significant difference was performed by the analysis of variance of data, followed by Student t-test. Differences were taken as significant when p values were less than 0.05 (*p<0.05, **p<0.01).

Male SD rats [3] = assay: Evaluation of preventive effect on obesity in rats (3 weeks, itaconic acid in drinking water); format: in vivo, rat
Method: Male SD rats (8-week-old) were individually reared, commencing immediately after arrival. After a week of acclimatization, the animals were divided into a control group and an itaconic acid group (8 animals per group), and reared for 3 weeks, with feed and drinking water of the itaconic acid concentration shown in [Table 1] being given ad lib.
During the 3-week rearing period, the body weight, the feed intake, and the water intake were measured daily or every other day. On the final day, the animal was placed on a 17-hour fast, the blood was sampled, and the plasma was analyzed for blood glucose, hepatic function, and lipid-related parameters. Furthermore, the weight of the livers, kidneys, fat around the kidneys, and fat around the intestines was measured. The experiments were conducted in groups of 8 rats each, and the results were indicated as mean values±standard deviations. The test for a significant difference was performed by the analysis of variance of data, followed by Student t-test. The level of significance was set at 0.05.
The plasma collected at completion of the experiments was measured for various biological parameters. […] The experiments were conducted in groups of 8 rats each, and the results were indicated as mean values±standard deviations. The test for a significant difference was performed by the analysis of variance of data, followed by Student t-test. The level of significance was set at 0.05.

[4] = system: streptozotocin-induced diabetes rats (male Wistar rats); assay: Evaluation of suppressive effect on blood glucose elevation in streptozotocin-induced diabetes rats; format: in vivo, rat
Text: Streptozotocin is an antibiotic derived from Streptomyces achromogenes, one of […]. Its action of inducing insulin-dependent diabetes mellitus was reported for the first time in 1963 by Rakieten et al. (Rakieten N, Rakieten M L, Nadkarni M V, Cancer Chemother Rep 29:91-98, 1963). Since then, it has been used most commonly as a substance for inducing diabetes experimentally. The main mechanism of its diabetogenic action is ascribed to the destruction of P cells of the pancreas, thereby suppressing insulin secretion. In male Wistar rats (7-week-old), a solution of streptozotocin in 0.05 M citric acid-0.145 […] NaCl (pH 4.5) was administered into the caudal vein (50 mg/kg). The animals were individually reared, commencing immediately after administration of streptozotocin. After a lapse of 48 hours, the animals with blood glucose levels of 300 mg/dl or more were divided into a control group and an itaconic acid group (7 or 8 animals per group), and study was initiated. A rearing feed was given to the control group, and a rearing feed containing 1.38% of itaconic acid was given to the itaconic acid group, ad. lib. together with drinking water, and the animals were reared for 3 weeks.
During the 3-week rearing period, blood glucose, body weight, feed intake, and water intake were measured twice or 3 times weekly. Rats are nocturnal animals, and feeding mostly takes place at night. However, since their blood glucose fluctuates greatly depending on the elapsed time after eating, each measurement of blood glucose was made between 9:30 and 10:00 in the morning. Blood hemoglobin Alc was measured on the day after administration of streptozotocin and on the 19th day after start of the study. Hemoglobin Alc is hemoglobin having glucose attached thereto non-enzymatically, and is expressed as a percentage (%) of total hemoglobin. In humans, hemoglobin Alc is known to serve as an indicator of the mean value of blood glucose during the period from 1 to 3 months previously until blood sampling. In rats, the life of an erythrocyte is about half of that in humans, and hemoglobin Alc has been reported to reflect the mean value of blood glucose since 2 to 3 weeks previously.
The experiments were conducted in groups of 7 or 8 rats each, and the results were indicated as mean values±standard deviations. The blood glucose was expressed as changes in individual animals compared with the value found at the start of the study (grouping). The test for a significant difference was performed by the analysis of variance of data, followed by Student t-test. The level of significance was set at 0.05.

[5] = target: T1, rat liver type F6P2kinase (Rattus norvegicus, UniProt P07953); assay: Inhibition by itaconic acid of F6P2kinase activity catalyzing synthesis of F26BP; format: biochemical; conditions: 0.5 mM itaconic acid; 0.4 mM F6P, 2 mM ATP, 30° C.; read-out: inhibitory activity on F6P2kinase
T1 construct: made in house; host or cells: Escherichia coli
T1 sequence (P07953 whole entry): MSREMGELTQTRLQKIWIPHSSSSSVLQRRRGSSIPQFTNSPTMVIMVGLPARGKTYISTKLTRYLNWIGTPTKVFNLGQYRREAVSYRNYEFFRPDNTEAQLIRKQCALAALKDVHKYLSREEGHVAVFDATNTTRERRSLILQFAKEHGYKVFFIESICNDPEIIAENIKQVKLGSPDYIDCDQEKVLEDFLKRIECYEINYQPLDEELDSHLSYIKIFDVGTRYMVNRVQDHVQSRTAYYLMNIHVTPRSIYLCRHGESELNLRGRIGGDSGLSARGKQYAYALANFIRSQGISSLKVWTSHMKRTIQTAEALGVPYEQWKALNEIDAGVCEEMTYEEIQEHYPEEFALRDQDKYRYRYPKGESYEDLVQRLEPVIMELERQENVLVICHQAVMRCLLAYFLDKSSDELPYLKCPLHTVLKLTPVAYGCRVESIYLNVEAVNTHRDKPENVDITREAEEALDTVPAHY
Method: The gene for rat liver type F6P2kinase was incorporated into Escherichia coli and expressed. From the E. coli cells, rat liver type F6P2kinase was purified (K. Kitamura et al., J. Biol. Chem., Vol. 264, 9799-9806, 1989). The rat liver type F6P2kinase (1.25 μg) was reacted at 30° C. in a reaction solution containing 100 mM Tris-HCl (pH 7.5), 0.1 mM EDTA, 10 mM MgCl2, 2 mM ATP, 0.4 mM F6P, and 0 to 1.5 mM itaconic acid. After lapses of 2, 4 and 6 minutes, 10 μl of the reaction mixture was transferred into a test tube containing 90 μl of 50 mM NaOH, and heated for 1 minute at 90° C. to terminate the reaction. The amount of the resulting F26BP was measured by a change in absorbance due to oxidation of NADH upon subsequent addition of glycolytic pathway enzymes. That is, 10 μl of the reaction mixture after termination of the reaction was added to 1 ml of a reaction solution containing 50 mM HEPES (pH 7.3), 0.2 mM EDTA, 5 mM MgCl2, 1 mM F6P, 1 mM PPi, 15 mU PPi-F6P phosphotransferase, 0.15 mM NADH, 1 U aldolase, 1 U glycerol-3-phosphate dehydrogenase, and 10 U triose-phosphate isomerase. The amount of F26BP was measured by a decrease in the absorbance at 340 nm (Van Schaftingen et al., Eur. J. Biochem., Vol. 129, 191-195, 1982). The activity that converts the substrate F6P to 1 μmole F26BP over 1 minute at 30° C. is defined as 1 U. The results are shown in FIG. 1.

[6] = at completion of 3 weeks, FIG. 5
[7] = at completion of 3 weeks, p<0.05, FIG. 5
[8] = plasma after 3 weeks, 17-hour fast, mean ± SD, n=8
[9] = plasma after 3 weeks, 17-hour fast, mean ± SD, n=8, P < 0.05 vs control

SMILES: OCC(CO)N[C@H]1C[C@](O)(CO)[C@@H](O)[C@H](O)[C@H]1O [voglibose]
- rapid increases (peaks) in postprandial blood glucose [1]: suppressing rapid increases (peaks) in postprandial blood glucose

SMILES: C=C(CC(=O)O)C(=O)O [itaconic acid]
- initial rapid increase in blood glucose after glucose challenge (Male SD rats [2]; itaconic acid 500 mg/kg orally 30 min before glucose 4 g/kg, 30 minutes after challenge, FIG. 6): significantly curbed
- blood glucose late after glucose challenge (Male SD rats [2]; itaconic acid 500 mg/kg orally, after 180 minutes and 240 minutes, versus control group): significantly high
- feed intake (Male SD rats [3]; 3-week period, compared with the control group, FIG. 3): decreases in the feed intake were observed
- weight of the kidneys per 100 g of body weight (Male SD rats [3]; [6]): not different between the groups
- weight of the livers per 100 g of body weight (Male SD rats [3]; [6]): not different between the groups
- weight of fat around the intestines per 100 g of body weight (Male SD rats [3]; [7]): significantly decreased
- weight of fat around the kidneys per 100 g of body weight (Male SD rats [3]; [7]): significantly decreased
- weight gain (Male SD rats [3]; from Day 9 onwards, p<0.05 against the control group, FIG. 2): significant suppression of weight gain
- ALP (Male SD rats [3]; [8]): 0.3 ± 0.1 IU/l
- Free cholesterol (Male SD rats [3]; [8]): 12.2 ± 2.0 mg/dL
- GOT (Male SD rats [3]; [8]): 65.0 ± 12.0 IU/l
- GPT (Male SD rats [3]; [8]): 13.0 ± 2.5 IU/l
- LDH (Male SD rats [3]; [8]): 276 ± 82 IU/l
- Total bilirubin (Male SD rats [3]; [8]): 0.19 ± 0.02 mg/dL
- Total cholesterol (Male SD rats [3]; [8]): 46.3 ± 7.1 mg/dL
- Triglycerides (Male SD rats [3]; plasma after 3 weeks, 17-hour fast, mean ± SD, n=8, P < 0.01 vs control): 20.9 ± 2.8 mg/dL
- Blood glucose (Male SD rats [3]; [9]): 149 ± 19 mg/dL
- Free fatty acids (Male SD rats [3]; [9]): 199 ± 75 mg/dL
- rise in blood hemoglobin Alc ([4]; Day 19, compared with the control group, FIG. 11): significant curbing of the rise
- body weight ([4]; feed containing 1.38% itaconic acid, 3 weeks, FIG. 8): not different between the groups
- rise in blood glucose (change from start of study) ([4]; feed containing 1.38% itaconic acid, 3 weeks, from Day 1 onwards, p<0.05 on Days 5 and 15, FIG. 7): suppression of the rise in blood glucose was observed
- feed intake ([4]; from about Day 5 onwards, compared with the control group, FIG. 9): decreases in feed intake were observed
- inhibition at 500 µM [5]: ~30%
